T/C data for 19 compounds are collected here from PubChem BioAssay AID248 (DTP/NCI, 2004).

The experiment concerns L1210 leukemia ip in BDF1 mice, survival T/C. The experiment is described as follows: NCI In Vivo Anticancer Drug Screen. Data for tumor model L1210 Leukemia (intraperitoneal) in B6D2F1 (BDF1) mice. To be noted: endpoint: mean survival time, higher = longer survival. Put shortly:
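Value reflects the ratio of survival in compound-treated mice to survival in vehicle-treated controls, with both groups carrying the same transplanted tumor.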

Setting [1] is: dose: 100.0 mg/kg/injection, schedule: Q04DX003 (ip), vehicle: saline.
The mark [2] stands for this setting: dose: 200.0 mg/kg/injection, schedule: Q04DX003 (ip), vehicle: saline.
[3] abbreviates: dose: 100.0 mg/kg/injection, schedule: Q01DX001 (ip), vehicle: carboxymethylcellulose (CMC).
Where [4] appears, read: dose: 200.0 mg/kg/injection, schedule: Q01DX001 (ip), vehicle: carboxymethylcellulose (CMC).
Setting [5] is: dose: 400.0 mg/kg/injection, schedule: Q01DX001 (ip), vehicle: carboxymethylcellulose (CMC).
[6] abbreviates: dose: 100.0 mg/kg/injection, schedule: Q04DX003 (ip), vehicle: Klucel (hydroxypropylcellulose) (HPC).
Where [7] appears, read: dose: 200.0 mg/kg/injection, schedule: Q04DX003 (ip), vehicle: Klucel (hydroxypropylcellulose) (HPC).
Setting [8] is: dose: 200.0 mg/kg/injection, schedule: Q01DX009 (ip), vehicle: saline.
Setting [9] is: dose: 100.0 mg/kg/injection, schedule: Q04DX003 (ip), vehicle: saline with Tween-80.
[10] abbreviates: dose: 200.0 mg/kg/injection, schedule: Q04DX003 (ip), vehicle: saline with Tween-80.

Several values for one entry are separate records, joined by “and”; a condition that tells them apart may be missing. Equal entries are not always repeated. Inconclusive results and toxic doses are left out.

Consider `CCCC[P+](CCCC)(CCCC)Cc1ccccc1`, for which the T/C (dose: 5.0 mg/kg/injection, schedule: Q01DX001 (ip), vehicle: saline) is 100 % of control; the T/C (dose: 10.0 mg/kg/injection, schedule: Q01DX001 (ip), vehicle: saline) is 119 % of control; the T/C (dose: 12.5 mg/kg/injection, schedule: Q04DX003 (ip), vehicle: Klucel (hydroxypropylcellulose) (HPC)) is 104 % of control; the T/C (dose: 20.0 mg/kg/injection, schedule: Q01DX001 (ip), vehicle: saline) was 98 % of control; the T/C (dose: 25.0 mg/kg/injection, schedule: Q04DX003 (ip), vehicle: Klucel (hydroxypropylcellulose) (HPC)) is 104 % of control; the T/C (dose: 40.0 mg/kg/injection, schedule: Q01DX001 (ip), vehicle: saline) is 96 % of control.
`O=C(Nc1ccccc1)OCC(Cl)(Cl)Cl`: the T/C was 105 % of control (dose: 100.0 mg/kg/injection, schedule: Q01DX001 (ip), vehicle: saline sonified); 100 % of control (dose: 100.0 mg/kg/injection, schedule: Q01DX009 (ip), vehicle: Klucel (hydroxypropylcellulose) (HPC)); 91 % of control under setting [1]; 108 % of control (dose: 200.0 mg/kg/injection, schedule: Q01DX001 (ip), vehicle: saline sonified); 107 % of control (dose: 200.0 mg/kg/injection, schedule: Q01DX009 (ip), vehicle: Klucel (hydroxypropylcellulose) (HPC)); 100 % of control under setting [2]. Also, the T/C (dose: 400.0 mg/kg/injection, schedule: Q01DX001 (ip), vehicle: saline sonified) is 103 % of control; the T/C (dose: 400.0 mg/kg/injection, schedule: Q01DX009 (ip), vehicle: Klucel (hydroxypropylcellulose) (HPC)) was 100 % of control; the T/C (dose: 400.0 mg/kg/injection, schedule: Q04DX003 (ip), vehicle: saline) is 96 % of control.
For `Cn1c(/N=C/c2ccc([N+](=O)[O-])cc2)c(N)c(=O)n(C)c1=O`, the T/C (dose: 50.0 mg/kg/injection, schedule: Q01DX001 (ip), vehicle: carboxymethylcellulose (CMC)) was 90 % of control; the T/C under setting [3] is 93 % of control; the T/C under setting [4] is 88 % of control; the T/C under setting [5] was 88 % of control.
In the case of `Nc1nc(N)nc(-c2ccccc2N=NN2CCCC2)n1`, the T/C by setting is: under setting [6], 105 % of control; under setting [7], 98 % of control; (dose: 400.0 mg/kg/injection, schedule: Q04DX003 (ip), vehicle: Klucel (hydroxypropylcellulose) (HPC)) 95 % of control.
Take `Cc1ncc2c[n+]([O-])ccn12`: the T/C runs as follows: under setting [1], 97 % of control; under setting [2], 98 % of control.
In the case of `Nc1nc(=O)n(C2OC(CO)C(O)C2O)cc1Cl` (stereo not given), the T/C was 150 % of control (dose: 200.0 mg/kg/injection, schedule: Q01DX005 (ip), vehicle: saline); 160 % of control under setting [8]; 176 % of control (dose: 400.0 mg/kg/injection, schedule: Q01DX009 (ip), vehicle: saline).
In the case of `O=S(=O)(F)c1ccc(C[P+](c2ccccc2)(c2ccccc2)c2ccccc2)cc1`, the T/C reads like this: (dose: 75.0 mg/kg/injection, schedule: Q01DX001 (ip), vehicle: saline) 106 % of control; (dose: 150.0 mg/kg/injection, schedule: Q01DX001 (ip), vehicle: saline) 105 % of control; (dose: 300.0 mg/kg/injection, schedule: Q01DX001 (ip), vehicle: saline) 98 % of control.
Regarding `N#CCC1CC=CCC1` (stereo not given), the T/C is 98 % of control under setting [3], 98 % of control under setting [4] and 104 % of control under setting [5].
Consider `CCOC(=O)c1c(C)c2c(n1C)CCC(CCC(C)=O)C2=O` (stereo not given), for which the T/C was 104 % of control under setting [3], 97 % of control under setting [4] and 93 % of control under setting [5].
In the case of `O=C(CBr)c1ccc(-c2ccccc2)cc1`, the T/C runs as follows: (dose: 6.0 mg/kg/injection, schedule: Q01DX009 (ip), vehicle: Klucel (hydroxypropylcellulose) (HPC)) 100 % of control; (dose: 12.0 mg/kg/injection, schedule: Q01DX009 (ip), vehicle: Klucel (hydroxypropylcellulose) (HPC)) 96 % of control; (dose: 25.0 mg/kg/injection, schedule: Q01DX009 (ip), vehicle: Klucel (hydroxypropylcellulose) (HPC)) 98 % of control; under setting [6], 98 % of control; under setting [7], 102 % of control.
As for `Cc1ccc(C)c(Cl)c1`, the T/C by setting is: (dose: 50.0 mg/kg/injection, schedule: Q01DX001 (ip), vehicle: saline with Tween-80) 95 % of control; (dose: 50.0 mg/kg/injection, schedule: Q04DX003 (ip), vehicle: saline with Tween-80) 101 % of control; (dose: 100.0 mg/kg/injection, schedule: Q01DX001 (ip), vehicle: saline with Tween-80) 97 % of control; under setting [9], 100 % of control; (dose: 200.0 mg/kg/injection, schedule: Q01DX001 (ip), vehicle: saline with Tween-80) 97 % of control; under setting [10], 97 % of control.
For the compound `CCC12C=CCN3CCC4(c5cc(C(c6ccc(OC)cc6)c6cc7ccccc7n6S(=O)(=O)c6ccccc6)c(OC)cc5N(C)C4C(O)(C(=O)OC)C1OC(C)=O)C32` (stereo not given), the T/C is 98 % of control (dose: 50.0 mg/kg/injection, schedule: Q04DX002 (ip), vehicle: Klucel (hydroxypropylcellulose) (HPC)); 98 % of control (dose: 100.0 mg/kg/injection, schedule: Q04DX002 (ip), vehicle: Klucel (hydroxypropylcellulose) (HPC)); 102 % of control (dose: 200.0 mg/kg/injection, schedule: Q04DX002 (ip), vehicle: Klucel (hydroxypropylcellulose) (HPC)).
On to `NC(=S)N/N=C/c1cccc(/C=N/NC(N)=S)c1`, for which the T/C runs as follows: (dose: 50.0 mg/kg/injection, schedule: Q01DX001 (ip), vehicle: saline) 98 % of control; (dose: 100.0 mg/kg/injection, schedule: Q01DX001 (ip), vehicle: saline) 93 % of control; (dose: 200.0 mg/kg/injection, schedule: Q01DX001 (ip), vehicle: saline) 93 % of control; (dose: 400.0 mg/kg/injection, schedule: Q01DX001 (ip), vehicle: saline) 93 % of control.
Turning to `C[Si](C)(c1ccc(C(=O)Cl)cc1)c1ccc(C(=O)Cl)cc1`, the T/C was 96 % of control (dose: 100.0 mg/kg/injection, schedule: Q04DX002 (ip), vehicle: saline with Tween-80); 96 % of control (dose: 200.0 mg/kg/injection, schedule: Q04DX002 (ip), vehicle: saline with Tween-80); 100 % of control (dose: 400.0 mg/kg/injection, schedule: Q04DX002 (ip), vehicle: saline with Tween-80).
On to `CN(C)CCN(Cc1ccccc1)c1ccccn1`, for which the T/C is 100 % of control (dose: 75.0 mg/kg/injection, schedule: Q01DX001 (ip), vehicle: carboxymethylcellulose (CMC)) and 95 % of control (dose: 150.0 mg/kg/injection, schedule: Q01DX001 (ip), vehicle: carboxymethylcellulose (CMC)).
For `CCOC(=O)C(O)(NC(=O)N/N=C/c1ccccc1)C(=O)OCC`, the T/C reads like this: (dose: 100.0 mg/kg/injection, schedule: Q01DX009 (ip), vehicle: saline with Tween-80) 101 % of control; under setting [9], 106 % of control; (dose: 200.0 mg/kg/injection, schedule: Q01DX009 (ip), vehicle: saline with Tween-80) 92 % of control; under setting [10], 104 % of control; (dose: 400.0 mg/kg/injection, schedule: Q01DX009 (ip), vehicle: saline with Tween-80) 93 % of control; (dose: 400.0 mg/kg/injection, schedule: Q04DX003 (ip), vehicle: saline with Tween-80) 101 % of control.
With `CSC(=S)NN`, the T/C (dose: 2.0 mg/kg/injection, schedule: Q04DX002 (ip), vehicle: saline) was 113 % of control; the T/C (dose: 4.0 mg/kg/injection, schedule: Q04DX002 (ip), vehicle: saline) was 110 % of control; the T/C (dose: 8.0 mg/kg/injection, schedule: Q04DX002 (ip), vehicle: saline) was 94 % of control and 108 % of control.
As to `O=P(NN1CCCCC1)(NN1CCCCC1)c1ccccc1`, the T/C (dose: 100.0 mg/kg/injection, schedule: Q01DX009 (ip), vehicle: carboxymethylcellulose (CMC)) is 93 % of control and the T/C (dose: 200.0 mg/kg/injection, schedule: Q01DX009 (ip), vehicle: carboxymethylcellulose (CMC)) was 93 % of control.
`NC(N)=NCCCCCC(=O)Oc1ccc([N+](=O)[O-])cc1`: the T/C runs as follows: (dose: 50.0 mg/kg/injection, schedule: Q01DX009 (ip), vehicle: saline) 105 % of control; (dose: 100.0 mg/kg/injection, schedule: Q01DX009 (ip), vehicle: saline) 99 % of control and 100 % of control; under setting [1], 92 % of control; under setting [8], 100 % of control and 101 % of control; under setting [2], 92 % of control.
